The record followed here is patent US20100273769A1, “COMPOSITION AND METHOD FOR THE TREATMENT OF PARKINSON'S DISEASE” (priority 2009, published 2010).

What all share (type): biochemical
The target in one assay is T1, G2019S mutant LRRK2 (Homo sapiens, UniProt Q5S007, G2019S).
T1 construct: of the mutant aa1326-2527 kinase fragment are used in the assays; GST; made in house
T1 sequence (Q5S007 1326-2527 G2019S): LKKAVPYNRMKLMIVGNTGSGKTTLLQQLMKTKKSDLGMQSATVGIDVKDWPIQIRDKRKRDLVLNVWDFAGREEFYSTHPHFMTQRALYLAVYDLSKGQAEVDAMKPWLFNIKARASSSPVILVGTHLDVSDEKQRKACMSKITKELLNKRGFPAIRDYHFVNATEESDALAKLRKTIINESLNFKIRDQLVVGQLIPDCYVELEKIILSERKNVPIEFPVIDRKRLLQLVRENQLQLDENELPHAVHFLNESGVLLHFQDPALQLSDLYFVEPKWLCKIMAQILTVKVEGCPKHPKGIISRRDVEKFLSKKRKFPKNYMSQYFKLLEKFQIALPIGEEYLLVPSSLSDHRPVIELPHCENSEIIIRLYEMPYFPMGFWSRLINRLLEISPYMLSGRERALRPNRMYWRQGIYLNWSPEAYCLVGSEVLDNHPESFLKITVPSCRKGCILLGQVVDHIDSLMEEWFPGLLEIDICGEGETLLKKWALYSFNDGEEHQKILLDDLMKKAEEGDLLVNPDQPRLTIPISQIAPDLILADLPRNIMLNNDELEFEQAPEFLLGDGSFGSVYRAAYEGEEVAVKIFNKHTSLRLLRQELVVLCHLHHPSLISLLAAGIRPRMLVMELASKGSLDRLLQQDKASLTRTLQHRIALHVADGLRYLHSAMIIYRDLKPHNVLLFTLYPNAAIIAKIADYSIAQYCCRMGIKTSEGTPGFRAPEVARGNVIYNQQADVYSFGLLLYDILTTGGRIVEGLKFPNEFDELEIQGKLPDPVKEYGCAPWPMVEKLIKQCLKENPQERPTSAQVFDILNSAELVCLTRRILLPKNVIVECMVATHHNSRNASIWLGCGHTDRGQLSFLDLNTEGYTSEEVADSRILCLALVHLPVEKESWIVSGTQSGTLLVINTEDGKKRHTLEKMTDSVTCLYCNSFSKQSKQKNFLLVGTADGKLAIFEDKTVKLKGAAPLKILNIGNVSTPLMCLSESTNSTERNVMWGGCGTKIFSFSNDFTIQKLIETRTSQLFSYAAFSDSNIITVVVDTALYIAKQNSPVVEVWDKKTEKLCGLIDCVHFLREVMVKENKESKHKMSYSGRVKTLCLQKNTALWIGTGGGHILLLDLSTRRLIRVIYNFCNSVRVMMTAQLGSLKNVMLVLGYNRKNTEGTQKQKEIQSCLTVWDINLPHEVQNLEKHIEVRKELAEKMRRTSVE
In words: Adapta assay, inhibition of G2019S mutant LRRK2 kinase fragment. Conditions: 100 μM ATP, FIG. 3B. Here is the method: Duplicate assay mixtures are set up each in a 10 μL volume containing 17 ng (8 nM) of human LRRK2 protein fragment encompassing amino acids 1326 to 2527, obtained as a recombinant GST fusion protein [according to Jaleel et al., Biochem. J. 405, 307-317 (2007)], 200 μM LRRKtide ([…]peptide), 25 mM Tris, pH 8.2, 5 mM MgCl2, 0.5 mM EGTA, 100 μM ATP, 0.005% Brij-35, 1% DMSO, and compound 3 in a series of concentrations (OnM, 0.1 nM, 0.3 nM, 1 nM, 3 nM, 10 nM, 30 nM, 100 nM, 300 nM, 1000 nM). After incubation for 1 hr at ambient temperature, 5 μL of the Adapta® Assay Detection Mix (Invitrogen) is added, containing 30 mM EDTA to stop the kinase reaction, 30 nM of the Eu-labelled anti-ADP antibody, and the AlexaFluor°-ADP conjugate. […]
The assays conducted in a 384 well microplate are then read out in a fluorescence microplate reader to establish the ratio of emissions at 665 nm (ADP-tracer) and at 615 nm (Eu-antibody) as a measure of ADP concentration by virtue of Fluorescence Resonance Energy Transfer (FRET). The conversion in % of ATP into ADP by the kinase reaction in each well is determined from the ADP/ATP standard curve, and means are formed from each duplicate assay well. […]
Inhibition is determined in the same way as in example 2, except that due to the higher specific activity […] of the mutant aa1326-2527 kinase fragment are used in the assays

In another assay the target is ERK2 (Homo sapiens, UniProt P28482). In words: Kinase specificity, ERK2. Conditions: 100 μM ATP.
For the next assay, the target named is Cdk1 (Homo sapiens, UniProt P06493). The assay can be described thus: Kinase specificity, Cdk1. Particulars: 100 μM ATP.
Chain of Cdk1 (P06493 whole entry, species assumed): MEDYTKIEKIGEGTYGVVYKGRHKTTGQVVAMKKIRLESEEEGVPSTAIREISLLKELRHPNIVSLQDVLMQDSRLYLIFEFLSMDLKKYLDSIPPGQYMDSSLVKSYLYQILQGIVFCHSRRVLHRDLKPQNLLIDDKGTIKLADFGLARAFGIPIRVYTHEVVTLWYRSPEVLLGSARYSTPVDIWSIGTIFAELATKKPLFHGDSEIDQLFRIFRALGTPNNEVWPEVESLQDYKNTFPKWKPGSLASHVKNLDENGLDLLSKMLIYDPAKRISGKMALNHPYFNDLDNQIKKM
Chain of Cdk1 (P14635 whole entry partner, species assumed): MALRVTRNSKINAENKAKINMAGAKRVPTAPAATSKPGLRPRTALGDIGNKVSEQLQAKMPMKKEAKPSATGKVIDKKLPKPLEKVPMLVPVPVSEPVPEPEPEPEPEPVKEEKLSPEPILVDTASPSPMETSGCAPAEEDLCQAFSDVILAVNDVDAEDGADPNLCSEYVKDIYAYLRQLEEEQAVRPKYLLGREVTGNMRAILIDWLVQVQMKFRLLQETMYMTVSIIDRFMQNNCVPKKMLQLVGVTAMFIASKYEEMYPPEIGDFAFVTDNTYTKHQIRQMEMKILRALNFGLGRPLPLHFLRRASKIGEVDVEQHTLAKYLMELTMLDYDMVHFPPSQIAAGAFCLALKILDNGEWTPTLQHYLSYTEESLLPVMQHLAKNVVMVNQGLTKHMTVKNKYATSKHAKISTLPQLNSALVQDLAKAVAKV

Chain of ERK2 (P28482 whole entry, species assumed): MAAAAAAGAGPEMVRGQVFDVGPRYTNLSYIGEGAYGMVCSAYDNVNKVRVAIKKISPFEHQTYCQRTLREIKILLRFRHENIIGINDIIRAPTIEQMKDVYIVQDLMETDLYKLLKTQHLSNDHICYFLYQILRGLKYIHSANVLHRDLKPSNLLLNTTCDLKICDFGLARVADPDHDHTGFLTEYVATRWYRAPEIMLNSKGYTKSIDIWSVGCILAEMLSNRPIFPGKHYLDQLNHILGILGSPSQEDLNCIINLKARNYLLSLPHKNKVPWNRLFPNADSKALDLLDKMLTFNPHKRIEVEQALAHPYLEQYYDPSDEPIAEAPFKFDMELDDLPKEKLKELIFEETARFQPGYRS

The term IC50 denotes the concentration that gives 50% inhibition. As to `CNC(=O)[C@@]1(N)CC2OC1(C)n1c3ccccc3c3c4c(c5c6ccccc6n2c5c31)C(=O)NC4` (stereo partly drawn) [Compound 3], the “IC50 relative to nominal kinase concentration, G2019S LRRK2” value against G2019S mutant LRRK2 was “substantially below the nominal concentration of the kinase itself”. Besides, the IC50 on ERK2 was determined as 0.026 µM; on Cdk1, 0.017 µM.
